Data on 60 molecules can be found in the Kinase Knowledgebase extract (Sharma et al. 2016).

The assay has as its target CDK2 (UniProt P24941). As to the kind of experiment: Enzyme Assay. To be noted: concentration not given here.

`Cc1csc(NC(=O)c2cccc(S(C)(=O)=O)c2)c1C(N)=O` showed an inhibition of 100%. Take `CC(C)c1cc(C(N)=O)c(NC(=O)CCNC(N)=O)s1`: the inhibition came to 100%. Molecule `CC(c1ccccc1)c1cc(C(N)=O)c(NC(=O)C(c2ccccc2)C(C)C)s1` (stereo not given) returned an inhibition of 100%. With `N#CC1(C(=O)Nc2sc3c(c2C(N)=O)CCCC3)CC1`, the inhibition is 100%.

Molecule `COc1cc(C(=O)Nc2sc(Cc3ccccc3)cc2C(N)=O)ccc1O` displayed an inhibition of 100%. `CN1CCc2c(sc(NC(=O)Cc3ccc(I)cc3)c2C(N)=O)C1` returned an inhibition of 100%.

For `CC(=O)N(CC(N)=O)c1sc2c(c1C(N)=O)CCCC2`, the inhibition amounted to 100%. The molecule `Cc1sc(NC(=O)c2ccc(OC(C)C)cc2)c(C(N)=O)c1C` yielded an inhibition of 100%. In turn, `Cc1ccc2[nH]c(C(=O)Nc3sc(C)c(C)c3C(N)=O)cc2c1` showed an inhibition of 100%.

`Cc1csc(NC(=O)c2cc(-n3cccc3)ccc2O)c1C(N)=O`: the inhibition is 100%. On to `NC(=O)c1cc(Cc2ccccc2)sc1-n1cnc2ncnc(C(=O)O)c21`, for which the inhibition was found to be 100%. Turning to `Cc1ccc(C)c(C(=O)Nc2sc(C(C)C)cc2C(N)=O)c1`, the inhibition turned out to be 100%.

The molecule `Cc1sc(NC(=O)Cc2ccc3c(c2)OCO3)c(C(N)=O)c1C` came in with an inhibition of 100%. To `Cc1csc(NC(=O)Cc2c[nH]c3ccc(O)cc23)c1C(N)=O` belongs 100%.

Take `Cc1ccc(C(=O)Nc2sc3c(c2C(N)=O)CCCC3)cc1`: the inhibition was 100%.

`Cc1sc(NC(=O)Cc2cn(C)c3ccccc23)c(C(N)=O)c1C` showed an inhibition of 100%. `CC(c1ccccc1)c1cc(C(N)=O)c(NC(=O)c2ccc3ccccc3c2)s1` (stereo not given) returned an inhibition of 100%. `NC(=O)c1c(NC(=O)CCCl)sc2c1CCCC2` registered an inhibition of 100%. With `COc1ccc(CC(=O)Nc2scc(C)c2C(N)=O)c(OC)c1`, the inhibition was found to be 100%. `Cc1csc(NC(=O)CNC(=O)c2ccccc2O)c1C(N)=O` showed an inhibition of 100%.

`CC(c1ccccc1)c1cc(C(N)=O)c(NC(=O)c2ccc(Cl)cc2O)s1` (stereo not given) registered an inhibition of 100%. Take `Cc1csc(NC(=O)CCn2ccc3ccccc32)c1C(N)=O`: the inhibition worked out at 100%.

Molecule `CCC(=O)C(=O)Nc1sc2c(c1C(N)=O)CCCC2` registered an inhibition of 100%. Take `CC(=O)N(C#N)c1sc2c(c1C(N)=O)CCCC2`: the inhibition came to 100%. `NC(=O)c1cc(-c2ccccc2)sc1NC(=O)C(O)c1ccccc1` (stereo not given) gave an inhibition of 100%. With `CC(c1ccccc1)c1cc(C(N)=O)c(NC(=O)c2ccnc3ccccc23)s1` (stereo not given), the inhibition amounted to 100%. With `NC(=O)c1c(N2C(=O)CCC2C(N)=O)sc2c1CCCC2` (stereo not given) the figure was 100%; with `CC(C)c1cc(C(N)=O)c(NC(=O)/C=C/c2ccncc2)s1`, 100%; with `COc1cc(OC)cc(C(=O)Nc2sc(C)c(C)c2C(N)=O)c1`, 100%. With `NC(=O)c1c(NC(=O)c2cnccn2)sc2c1CCCC2`, the inhibition is 100%. Regarding `CC(c1ccccc1)c1cc(C(N)=O)c(NC(=O)Cc2cn(C)cn2)s1` (stereo not given), the inhibition was determined as 100%. `Cc1cccc(C(=O)Nc2sc(-c3ccccc3)cc2C(N)=O)c1O` displayed an inhibition of 100%. To `Cc1sc(NC(=O)CCCC(=O)c2ccccc2)c(C(N)=O)c1C` belongs 100%; to `CC(C)c1cc(C(N)=O)c(NC(=O)Cc2cccs2)s1`, 100%; to `CC(C)c1cc(C(N)=O)c(NC(=O)C2CNC(=O)N2)s1` (stereo not given), 100%.

`Cc1cccc(C)c1C(=O)Nc1sc(C(C)C)cc1C(N)=O` yielded an inhibition of 100%. On to `Cc1sc(NC(=O)c2ccccc2-n2cccc2)c(C(N)=O)c1C`, for which the inhibition worked out at 100%. The molecule `C#CC(=O)N(c1ccccc1)c1sc(C(C)C)cc1C(N)=O` came in with an inhibition of 100%. For `Cc1sc(NC(=O)c2ccc(Cl)c(Cl)c2)c(C(N)=O)c1C`, the inhibition was 100%. Molecule `NC(=O)c1cc(Cc2ccccc2)sc1NC(=O)/C=C\c1cccc(O)c1` had an inhibition of 100%.

Consider `NC(=O)c1c(NC(=O)c2ccncc2)sc2c1CCCC2`, for which the inhibition came to 100%. Regarding `CN1CCc2c(sc(NC(=O)c3cccc(I)c3)c2C(N)=O)C1`, the inhibition was found to be 100%. With `CN1CCc2c(sc(NC(=O)c3sc4ccccc4c3Cl)c2C(N)=O)C1` the figure was 100%. With `COc1cc(CC(=O)Nc2scc(C)c2C(N)=O)cc(OC)c1` the figure was 100%. Consider `CN1CCc2c(sc(NC(=O)CCc3nc4c([nH]3)c(=O)n(C)c(=O)n4C)c2C(N)=O)C1`, for which the inhibition came to 100%. `Cc1sc(NC(=O)c2cccc(Cl)c2Cl)c(C(N)=O)c1C` returned an inhibition of 100%. `NC(=O)c1cc(Cc2ccccc2)sc1NC(=O)c1c[nH]cn1` gave an inhibition of 100%.

`CC(c1ccccc1)c1cc(C(N)=O)c(NC(=O)c2cccc3ccccc23)s1` (stereo not given) showed an inhibition of 100%. Take `Cc1sc(NC(=O)c2ccc(-n3cccc3)cc2)c(C(N)=O)c1C`: the inhibition was 100%.

Consider `CN1CCc2c(sc(NC(=O)c3cc4cc(Cl)ccc4[nH]3)c2C(N)=O)C1`, for which the inhibition is 100%. Turning to `CC(=O)CC(=O)N(CC(N)=O)c1sc(-c2ccccc2)cc1C(N)=O`, the inhibition came to 100%. The molecule `CN1CCc2c(sc(NC(=O)/C=C\C(=O)Nc3cccc4ccccc34)c2C(N)=O)C1` had an inhibition of 100%.

`COc1ccc(OC)c(/C=C\C(=O)Nc2scc(C)c2C(N)=O)c1` registered an inhibition of 100%. With `CC(C)c1cc(C(N)=O)c(NC(=O)CCc2ccccc2)s1` the figure was 100%.

Consider `CC(=O)Nc1cccc(C(=O)Nc2sc(C(C)c3ccccc3)cc2C(N)=O)c1` (stereo not given), for which the inhibition is 100%. The molecule `CN1CCc2c(sc(NC(=O)CCN3C(=O)c4ccccc4C3=O)c2C(N)=O)C1` displayed an inhibition of 100%. To `COc1ccccc1/C=C\C(=O)Nc1sc(C(C)c2ccccc2)cc1C(N)=O` (stereo not given) belongs 100%; to `Cc1cccc(C(=O)Nc2sc3c(c2C(N)=O)CCCC3)c1`, 100%; to `COc1ccc(C(=O)Nc2scc(C)c2C(N)=O)c(OC)c1OC`, 100%. Molecule `NC(=O)CN(C(=O)c1ccco1)c1sc(Cc2ccccc2)cc1C(N)=O` displayed an inhibition of 100%.
